Laboratory results from patent publication US20030188756A1, “Treatment of inflammatory bowel disease with vitamin d compounds” (priority 2002, published 2003).

Legend:
Assay type in all cases: in vivo
WT mice = assay: 1,25(OH)2D3 supplementation (0.005 μg/d, 4 weeks) of vitamin D deficient WT mice; details: 0.005 μg/day 1,25(OH)2D3 for 4 weeks, mean ± SEM
Excerpt: (§1) MICE. Age and sex matched C57BL/6 IL-10 KO, and wildtype (WT) mice were produced in the Pennsylvania State University breeding colony; the breeding pairs were obtained from Jackson Laboratory (Bar Harbor, Me.). The animal facilities at the Pennsylvania State University are specific pathogen free and therefore breeding IL-10 KO mice was successful. All of the procedures described were reviewed and approved by the Pennsylvania State University Institutional Animal Care and Use Committee on Jan. 25, 1999, IACUC# number: 98118-A0.
DIETS. […]
(§2) The 3 week old vitamin D deficient mice were randomly assigned to various treatment groups as described below. […] Symptoms of hypercalcemia monitored daily included overall health and weight loss. […]
SERUM MEASUREMENTS. […] Serum was collected every 2 weeks and serum calcium measured (normal for mice is 2.00-2.75 mmol/L). Vitamin D deficiency was also monitored by serum calcium analysis (serum calcium less then 1.75 mmol/L). […] Red blood cells were counted using a hemocytometer.
(§3) IBD SEVERITY. Mortality associated with the development of diarrhea was recorded in IL-10 KO and WT mice. […] Four or more paraffin sections (4 microns) from each mouse were scored using the exact procedure described by Kuhns et. al (1993). The sections were scored blindly on a scale of 0 to 5 for inflammation. […]

IL-10 KO mice [1] = assay: Short term (2 weeks, 0.2 μg/d) 1,25(OH)2D3 treatment of IL-10 KO mice started at first IBD symptoms
Excerpt: as §1
(§4) DIETS. From a single pool of breeding females fed commercial mouse diet (#5105 Ralston Purina Co.), females in the second week of gestation were selected and randomly distributed into two groups. Starting pregnant dams on vitamin D deficient diet ensured that by 5 weeks of age the weanlings were vitamin D deficient (Cantorna et al. 1996). All mice were fed synthetic diets made in the laboratory (Yang et al. 1993; modification of Smith et al. 1987). The mice were vitamin D deficient, vitamin D sufficient or 1,25-dihydroxycholecalciferol supplemented. Mice were housed under yellow light to prevent the synthesis of vitamin D in skin. All of the mice were vitamin D deficient until weaning.
(§5) The 3 week old vitamin D deficient mice were randomly assigned to various treatment groups as described below. […] Experimental diets were prepared fresh and replaced every 2-3 days during the experiment. To ensure that 1,25-dihydroxycholecalciferol (1,25(OH)2D3) treated mice ate all of the 1,25(OH)2D3 provided, food cups containing 8 g of diet were replaced every other day (completely eaten) for the duration of each experiment (Cantorna et al. 1996, Cantorna et al. 1998a). In order to monitor vitamin D toxicity, 1,25(OH)2D3 supplemented mice were observed daily for signs of hypercalcemia. Symptoms of hypercalcemia monitored daily included overall health and weight loss.
In the 3rd experimental design 1,25(OH)2D3 treatment was started at the first signs of IBD symptoms (diarrhea, 7 weeks of age). Seven week old vitamin D deficient mice were split into 2 groups. One group was maintained vitamin D deficient and the other group was supplemented with 0.2 μg/d 1,25(OH)2D3. The mice were treated for 2 weeks and the 9 week old mice were sacrificed.
as §3, with “mice. In addition the small intestines (SI) were removed and weighed. The jejunum of the […] KO mice is visibly inflamed and has been used by others to monitor symptoms of IBD in mice (Kuhns et al. 1993).” for “mice.”

IL-10 KO mice [2] = assay: 1,25(OH)2D3 supplementation (0.005 μg/d, 4 weeks) of vitamin D deficient IL-10 KO mice, IBD symptoms
Excerpt: as §1, §4, §5
In the 2nd series of experiments 3 week old vitamin D deficient mice were split into 2 groups. One group of mice was maintained on the vitamin D deficient diet and the other group was supplemented with 0.005 μg/d 1,25(OH)2D3. The vitamin D deficient and 1,25(OH)2D3 supplemented mice were sacrificed 4 weeks later at […].
SERUM MEASUREMENTS. Mice were bled at 5 weeks of age and at the end of the experiments to measure hemoglobin, calcium, and red blood cell numbers. Serum was collected every 2 weeks and serum calcium measured (normal for mice is 2.00-2.75 mmol/L). Vitamin D deficiency was also monitored by serum calcium analysis (serum calcium less then 1.75 mmol/L). Calcium (587-A) and hemoglobin (525-A) colorometric kits were from Sigma Chemical Co. (St. Louis, Mo.). Red blood cells were counted using a hemocytometer.
IBD SEVERITY. Mortality associated with the development of diarrhea was recorded in IL-10 KO and WT mice. In addition the small intestines (SI) were removed and weighed. The jejunum of the […] KO mice is visibly inflamed and has been used by others to monitor symptoms of IBD in mice (Kuhns et al. 1993). The jejunum of the SI was saved in 100 g/L formalin in phosphate buffered saline solution and sent to the Penn State Diagnostic Laboratory for sectioning and staining with hematoxyalin and eosin. Four or more paraffin sections (4 microns) from each mouse were scored using the exact procedure described by Kuhns et. al (1993). The sections were scored blindly on a scale of 0 to 5 for inflammation. […]

IL-10 KO mice [3] = assay: Mortality and growth of IL-10 KO mice fed cholecalciferol (vitamin D sufficient) from weaning
Excerpt: as §1
DIETS. From a single pool of breeding females fed commercial mouse diet (#5105 Ralston Purina Co.), females in the second week of gestation were selected and randomly distributed into two groups. Starting pregnant dams on vitamin D deficient diet ensured that by 5 weeks of age the weanlings were vitamin D deficient (Cantorna et al. 1996). […]
as §2, §3

IL-10 KO mice [4] = assay: Food restriction experiment, IL-10 KO mice on cholecalciferol diet (+D restricted); details: mean ± SEM
Excerpt: as §1, §4
as §5, with “In order to monitor vitamin D toxicity, 1,25(OH)2D3 supplemented mice were observed daily for signs of hypercalcemia.” left out, “loss. […]” for “loss.”
as §3

[5] = 0.2 μg/d 1,25(OH)2D3 for 2 weeks from 7 weeks of age, mean ± SEM
[6] = treatment for as little as 2 weeks
[7] = 1,25(OH)2D3 supplemented IL-10 KO and WT mice, data not shown
[8] = 5.0 μg/d cholecalciferol for 4 weeks

Structure (SMILES)	Serum Calcium (WT mice) [mmol/L]	Small Intestine g (IL-10 KO mice [1]; [5]) [g]	Small Intestine g/100 g body (IL-10 KO mice [1]; [5]) [g/100 g body]	IBD symptoms (IL-10 KO mice [1]; [6])	Inflammation in the small intestine (IL-10 KO mice [1]; [6])	Erythrocyte numbers (IL-10 KO mice [2]; [7])	Hemoglobin levels (IL-10 KO mice [2]; [7])	Weight (IL-10 KO mice [2]; IL-10 KO mice, 0.005 μg/day 1,25(OH)2D3 for 4 weeks, 9 weeks of age, mean ± SEM) [g]	Serum Calcium (IL-10 KO mice [2]; IL-10 KO mice, 0.005 μg/day 1,25(OH)2D3 for 4 weeks, mean ± SEM) [mmol/L]	Histology Score (IL-10 KO mice [2]; IL-10 KO mice, small intestine (jejunum) inflammation, scale 0 to 5, 0.005 μg/day for 4 weeks, mean ± SEM)	Diarrhea and mortality (IL-10 KO mice [3]; 5.0 μg cholecalciferol/d from weaning (FIG. 1))	Growth (body weight curve) (IL-10 KO mice [3]; 5.0 μg cholecalciferol/d from weaning, compared to vitamin D deficient IL-10 KO mice (FIG. 2))	Weight (IL-10 KO mice [4]; 5.0 μg/d cholecalciferol for 4 weeks from 5 weeks of age) [g]	Small Intestine g (IL-10 KO mice [4]; [8]) [g]	Small Intestine g/100 g body (IL-10 KO mice [4]; [8]) [g/100 g body]
C=C1/C(=C\C=C2/CCC[C@]3(C)[C@@H]([C@H](C)CCCC(C)(C)O)CC[C@@H]23)C[C@@H](O)C[C@@H]1O [1,25(OH)2D3, 1,25-dihydroxycholecalciferol]	2.72 ± 0.25	1.08 ± 0.05	5.4 ± 0.3	ameliorated IBD symptoms	reduced the inflammation	normal and not different	normal and not different	20.9 ± 0.8	3.00 ± 0.30	1.7 ± 0.4	–	–	–	–	–
C=C1CC[C@H](O)C/C1=C/C=C1\CCC[C@]2(C)[C@@H]([C@H](C)CCCC(C)C)CC[C@@H]12 [cholecalciferol]	–	–	–	–	–	–	–	–	–	–	did not develop diarrhea or die	grew rapidly	16.1 ± 1.1	1.00 ± 0.02	6.2 ± 0.3
